{"source": "paper PMC6858497", "about": "(The Journal of physiology, 2019)", "key": {"GluN1–1a/2D": {"molecular_target": "GluN1–1a/2D (Rattus norvegicus, UniProt P35439+Q62645)", "sequence (Q62645 28-1323, other chains not shown)": "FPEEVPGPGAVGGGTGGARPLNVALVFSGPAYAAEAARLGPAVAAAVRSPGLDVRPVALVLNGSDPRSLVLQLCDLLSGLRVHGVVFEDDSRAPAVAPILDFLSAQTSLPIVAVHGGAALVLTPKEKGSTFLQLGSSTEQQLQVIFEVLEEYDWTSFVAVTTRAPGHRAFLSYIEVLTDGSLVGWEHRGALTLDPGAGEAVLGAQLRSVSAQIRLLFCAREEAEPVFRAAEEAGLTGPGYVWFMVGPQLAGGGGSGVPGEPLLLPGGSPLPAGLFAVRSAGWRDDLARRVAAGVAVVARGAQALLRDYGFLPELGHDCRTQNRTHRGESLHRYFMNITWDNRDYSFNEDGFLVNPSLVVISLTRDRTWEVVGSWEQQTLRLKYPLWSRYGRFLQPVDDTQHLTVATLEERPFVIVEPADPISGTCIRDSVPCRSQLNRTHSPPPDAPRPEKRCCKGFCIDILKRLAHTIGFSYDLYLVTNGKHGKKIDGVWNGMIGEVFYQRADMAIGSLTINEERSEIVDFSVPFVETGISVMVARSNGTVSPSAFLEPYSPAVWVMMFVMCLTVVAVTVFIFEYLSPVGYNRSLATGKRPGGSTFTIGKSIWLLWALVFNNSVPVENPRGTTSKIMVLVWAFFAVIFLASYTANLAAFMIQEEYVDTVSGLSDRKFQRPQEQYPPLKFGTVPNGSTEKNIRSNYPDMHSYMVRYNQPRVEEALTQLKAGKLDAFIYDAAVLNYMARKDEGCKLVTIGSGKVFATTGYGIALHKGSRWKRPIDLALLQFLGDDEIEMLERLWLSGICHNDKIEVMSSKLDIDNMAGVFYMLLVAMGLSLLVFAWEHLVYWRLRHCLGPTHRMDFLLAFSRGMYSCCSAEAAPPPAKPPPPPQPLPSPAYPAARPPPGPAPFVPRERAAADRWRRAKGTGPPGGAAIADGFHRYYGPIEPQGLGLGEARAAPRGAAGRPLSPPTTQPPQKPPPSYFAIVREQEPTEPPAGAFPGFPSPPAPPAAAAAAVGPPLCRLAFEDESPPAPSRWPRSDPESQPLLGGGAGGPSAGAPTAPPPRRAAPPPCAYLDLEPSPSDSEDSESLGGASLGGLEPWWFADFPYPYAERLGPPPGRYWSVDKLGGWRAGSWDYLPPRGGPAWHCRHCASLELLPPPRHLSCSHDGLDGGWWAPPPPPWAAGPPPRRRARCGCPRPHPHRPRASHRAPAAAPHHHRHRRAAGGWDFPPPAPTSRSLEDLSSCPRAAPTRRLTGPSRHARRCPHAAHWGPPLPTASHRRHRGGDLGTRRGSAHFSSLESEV", "test": "Two-electrode voltage-clamp recordings, Xenopus oocytes", "assay_type": "cell-based", "settings": "for Spermine modulation (% control): 100 μM spermine, −20 mV; for Relative Imax: isoform 1a"}, "GluN1–1a/2B": {"molecular_target": "GluN1–1a/2B (Rattus norvegicus, UniProt P35439+Q00960)", "sequence (Q00960 27-1482, other chains not shown)": "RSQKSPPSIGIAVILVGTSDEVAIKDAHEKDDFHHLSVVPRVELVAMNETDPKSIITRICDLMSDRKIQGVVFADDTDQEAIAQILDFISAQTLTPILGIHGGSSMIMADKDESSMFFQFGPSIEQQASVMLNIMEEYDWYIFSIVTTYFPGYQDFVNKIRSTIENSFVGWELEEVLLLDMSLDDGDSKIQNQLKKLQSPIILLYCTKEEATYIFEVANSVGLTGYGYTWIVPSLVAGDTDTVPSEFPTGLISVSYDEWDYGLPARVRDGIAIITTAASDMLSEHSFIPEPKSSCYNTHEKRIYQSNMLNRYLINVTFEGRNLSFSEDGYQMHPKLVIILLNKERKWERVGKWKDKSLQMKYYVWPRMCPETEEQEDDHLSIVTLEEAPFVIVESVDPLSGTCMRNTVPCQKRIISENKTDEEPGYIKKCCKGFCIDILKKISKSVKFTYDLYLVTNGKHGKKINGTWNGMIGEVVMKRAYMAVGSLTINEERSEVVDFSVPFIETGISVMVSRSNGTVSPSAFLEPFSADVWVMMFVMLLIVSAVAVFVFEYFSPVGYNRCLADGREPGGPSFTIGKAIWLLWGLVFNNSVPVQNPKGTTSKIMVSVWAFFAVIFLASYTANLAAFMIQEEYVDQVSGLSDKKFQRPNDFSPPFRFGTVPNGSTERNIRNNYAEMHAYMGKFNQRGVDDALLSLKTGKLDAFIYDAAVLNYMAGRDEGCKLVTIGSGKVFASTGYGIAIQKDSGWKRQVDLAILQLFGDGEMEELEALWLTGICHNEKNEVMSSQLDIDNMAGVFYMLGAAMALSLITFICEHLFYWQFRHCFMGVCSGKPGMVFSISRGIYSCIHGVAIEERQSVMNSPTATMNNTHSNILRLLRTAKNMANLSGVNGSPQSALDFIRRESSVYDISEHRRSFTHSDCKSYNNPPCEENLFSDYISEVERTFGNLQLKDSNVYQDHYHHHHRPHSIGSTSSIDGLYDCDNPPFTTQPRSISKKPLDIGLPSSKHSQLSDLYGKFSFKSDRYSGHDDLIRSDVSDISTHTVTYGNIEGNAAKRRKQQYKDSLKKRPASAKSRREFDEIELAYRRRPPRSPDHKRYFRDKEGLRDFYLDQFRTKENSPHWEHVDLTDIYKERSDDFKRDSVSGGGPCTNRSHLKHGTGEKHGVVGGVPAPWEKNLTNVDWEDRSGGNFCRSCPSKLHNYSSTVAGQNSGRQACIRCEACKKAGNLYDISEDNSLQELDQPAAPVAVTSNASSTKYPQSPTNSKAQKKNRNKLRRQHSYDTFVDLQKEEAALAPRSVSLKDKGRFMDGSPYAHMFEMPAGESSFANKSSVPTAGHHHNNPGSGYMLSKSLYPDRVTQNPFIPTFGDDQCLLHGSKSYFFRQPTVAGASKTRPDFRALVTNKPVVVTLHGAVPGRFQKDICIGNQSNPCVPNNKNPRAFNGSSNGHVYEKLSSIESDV", "test": "Two-electrode voltage-clamp recordings, Xenopus oocytes", "assay_type": "cell-based", "settings": "for Spermine modulation (% control): 100 μM spermine, −20 mV"}, "[1]": {"test_system": "NMDAR-EPSCs in hippocampal CA1 pyramidal cells", "test": "Whole-cell patch-clamp of NMDAR-EPSCs in acute hippocampal slices", "assay_type": "cell-based, mouse", "settings": "100 μM; +40 mV; P21–28 slices"}, "GluN1–1a/2AC1/2BC2": {"molecular_target": "GluN1–1a/2AC1/2BC2 (Rattus norvegicus, UniProt P35439+Q00959+Q00960, A876H/F846L/G856D/H848F/K857R/M851T/M860L/Q845K/V861L)", "settings": "100 μM spermine, −20 mV"}, "[2]": {"test_system": "NMDAR-EPSCs in hippocampal interneurons (CA1 s.r./s.l.m.)", "test": "Whole-cell patch-clamp of NMDAR-EPSCs in acute hippocampal slices", "assay_type": "cell-based, mouse"}, "GluN1–1a/2BC1/2DC2": {"molecular_target": "GluN1–1a/2BC1/2DC2 (Rattus norvegicus, UniProt P35439+Q00959+Q00960+Q62645, A876H/F846L/G856D/H848F/K857R/M851T/M860L/Q845K/R869K/V861L/V866F)", "test": "Two-electrode voltage-clamp recordings, Xenopus oocytes", "assay_type": "cell-based", "settings": "for Spermine modulation (% control): 100 μM spermine, −20 mV; for Relative Imax: isoform 1a"}, "GluN1–1a/2A": {"molecular_target": "GluN1–1a/2A (Rattus norvegicus, UniProt P35439+Q00959)", "sequence (Q00959 23-1464, other chains not shown)": "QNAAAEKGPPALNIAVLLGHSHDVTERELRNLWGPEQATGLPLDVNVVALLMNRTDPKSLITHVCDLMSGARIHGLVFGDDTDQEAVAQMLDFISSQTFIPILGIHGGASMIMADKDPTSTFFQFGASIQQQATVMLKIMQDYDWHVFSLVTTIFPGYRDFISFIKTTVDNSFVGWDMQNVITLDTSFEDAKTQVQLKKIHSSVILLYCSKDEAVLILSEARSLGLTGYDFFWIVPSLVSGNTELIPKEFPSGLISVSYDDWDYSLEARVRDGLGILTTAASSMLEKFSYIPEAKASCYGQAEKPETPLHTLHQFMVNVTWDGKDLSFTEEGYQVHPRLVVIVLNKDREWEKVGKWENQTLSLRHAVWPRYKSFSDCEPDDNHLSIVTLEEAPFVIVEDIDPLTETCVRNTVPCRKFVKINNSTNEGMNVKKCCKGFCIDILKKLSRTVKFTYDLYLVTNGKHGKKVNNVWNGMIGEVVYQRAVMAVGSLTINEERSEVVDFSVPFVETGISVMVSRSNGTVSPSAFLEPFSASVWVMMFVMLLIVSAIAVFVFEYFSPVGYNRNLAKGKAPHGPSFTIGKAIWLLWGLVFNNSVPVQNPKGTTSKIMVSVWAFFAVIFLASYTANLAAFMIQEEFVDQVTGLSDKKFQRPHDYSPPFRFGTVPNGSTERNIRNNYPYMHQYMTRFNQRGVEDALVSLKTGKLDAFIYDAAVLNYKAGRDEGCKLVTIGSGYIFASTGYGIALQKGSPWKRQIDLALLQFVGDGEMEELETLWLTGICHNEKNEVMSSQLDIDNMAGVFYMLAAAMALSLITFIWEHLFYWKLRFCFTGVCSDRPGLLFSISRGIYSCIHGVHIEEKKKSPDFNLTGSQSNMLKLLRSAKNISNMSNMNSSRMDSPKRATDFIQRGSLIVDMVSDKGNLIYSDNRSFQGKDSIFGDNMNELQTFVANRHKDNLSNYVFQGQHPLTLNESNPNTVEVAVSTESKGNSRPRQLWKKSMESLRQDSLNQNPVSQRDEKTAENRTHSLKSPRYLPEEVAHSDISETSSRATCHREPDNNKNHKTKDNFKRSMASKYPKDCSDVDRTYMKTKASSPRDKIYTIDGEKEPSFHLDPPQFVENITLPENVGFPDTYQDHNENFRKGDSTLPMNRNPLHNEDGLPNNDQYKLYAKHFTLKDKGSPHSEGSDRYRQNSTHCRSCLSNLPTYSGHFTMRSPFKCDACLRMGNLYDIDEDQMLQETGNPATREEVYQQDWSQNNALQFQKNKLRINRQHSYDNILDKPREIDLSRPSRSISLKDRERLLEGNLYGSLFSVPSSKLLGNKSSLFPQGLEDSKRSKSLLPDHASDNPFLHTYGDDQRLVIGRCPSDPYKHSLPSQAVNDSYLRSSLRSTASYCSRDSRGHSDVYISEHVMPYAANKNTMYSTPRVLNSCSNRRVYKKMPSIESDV", "settings": "100 μM spermine, −20 mV"}, "GluN1–1b/2D": {"molecular_target": "GluN1–1b/2D (Rattus norvegicus, UniProt P35439+Q62645)", "sequence (Q62645 28-1323, other chains not shown)": "as the sequence (Q62645 28-1323, other chains not shown) above", "test": "Two-electrode voltage-clamp recordings, Xenopus oocytes", "assay_type": "cell-based", "settings": "at 10 μM; isoform 1b"}, "GluN1–1b/2B": {"molecular_target": "GluN1–1b/2B (Rattus norvegicus, UniProt P35439+Q00960)", "test": "Two-electrode voltage-clamp recordings, Xenopus oocytes", "assay_type": "cell-based", "settings": "at 10 μM; isoform 1b"}, "GluN1–1b/2BC1/2DC2": {"molecular_target": "GluN1–1b/2BC1/2DC2 (Rattus norvegicus, UniProt P35439+Q00959+Q00960+Q62645, A876H/F846L/G856D/H848F/K857R/M851T/M860L/Q845K/R869K/V861L/V866F)", "test": "Two-electrode voltage-clamp recordings, Xenopus oocytes", "assay_type": "cell-based", "settings": "at 10 μM; isoform 1b"}, "[3]": {"settings": "at 100 μM, pH 7.4, holding potential −20 mV"}}, "note": "Where “and” joins values, the source holds several entries; their conditions need not be identical. Equal values may be shown once. Read-outs that look alike come from different tables or passages of the source.", "data": [{"molecule": "NCCCNCCCCNCCCN", "note": "[spermine]", "values": [{"measurement": "Spermine modulation (% control)", "setting": "GluN1–1a/2D; pH 6.8", "value": "82 ± 1", "unit": "% control"}, {"measurement": "Spermine modulation (% control)", "setting": "GluN1–1a/2D; pH 7.4", "value": "71 ± 0.4", "unit": "% control"}, {"measurement": "Spermine modulation (% control)", "setting": "GluN1–1a/2D; pH 7.4, listed as Spermine", "value": 71, "unit": "% control"}, {"measurement": "Relative Imax", "setting": "GluN1–1a/2D; [3]", "value": "71 ± 0.4", "unit": "%"}, {"measurement": "Spermine modulation (% control)", "setting": "GluN1–1a/2B; pH 6.8", "value": "585 ± 29", "unit": "% control"}, {"measurement": "Spermine modulation (% control)", "setting": "GluN1–1a/2B; pH 7.4", "value": "211 ± 6", "unit": "% control"}, {"measurement": "Spermine modulation (% control)", "setting": "GluN1–1a/2B; pH 7.4, listed as Spermine", "value": 211, "unit": "% control"}, {"measurement": "Relative Imax", "setting": "GluN1–1a/2B; at 100 μM, pH 7.4, holding potential −20 mV, isoform 1a", "value": "211 ± 6", "unit": "%"}, {"measurement": "NMDAR-EPSC peak amplitude, % of baseline", "setting": "[1]", "value": "95 ± 5 % of baseline"}, {"measurement": "Spermine modulation (% control)", "setting": "GluN1–1a/2AC1/2BC2; pH 6.8", "value": "95 ± 0.1", "unit": "% control"}, {"measurement": "Spermine modulation (% control)", "setting": "GluN1–1a/2AC1/2BC2; pH 7.4", "value": "80 ± 1", "unit": "% control"}, {"measurement": "NMDAR-EPSC peak amplitude, % of baseline", "setting": "[2]; 100 μM, +40 mV, P21–28 slices", "value": "137 ± 13 % of baseline"}, {"measurement": "effect on EPSC decay time", "setting": "[2]; treatment versus baseline, paired t test, 10 μM (spermine 100 μM)", "value": "unchanged"}, {"measurement": "Spermine modulation (% control)", "setting": "GluN1–1a/2BC1/2DC2; pH 6.8", "value": "233 ± 10", "unit": "% control"}, {"measurement": "Spermine modulation (% control)", "setting": "GluN1–1a/2BC1/2DC2; pH 7.4", "value": "150 ± 2", "unit": "% control"}, {"measurement": "Spermine modulation (% control)", "setting": "GluN1–1a/2BC1/2DC2; pH 7.4, listed as Spermine", "value": 150, "unit": "% control"}, {"measurement": "Relative Imax", "setting": "GluN1–1a/2BC1/2DC2; [3]", "value": "150 ± 2", "unit": "%"}, {"measurement": "Spermine modulation (% control)", "setting": "GluN1–1a/2A; pH 6.8", "value": "79 ± 1", "unit": "% control"}, {"measurement": "Spermine modulation (% control)", "setting": "GluN1–1a/2A; pH 7.4", "value": "72 % control and 72 ± 1 % control"}]}, {"molecule": "COc1ccc(OCC2c3cc(OC)c(OC)cc3CCN2C(=O)c2cccc(Cl)c2)cc1", "note": "(stereo not drawn) [CIQ]", "values": [{"measurement": "Relative Imax", "setting": "GluN1–1b/2D", "value": "197% and 197 ± 8%"}, {"measurement": "Relative Imax", "setting": "GluN1–1b/2B", "value": "91% and 91 ± 3%"}, {"measurement": "Relative Imax", "setting": "GluN1–1a/2D; at 10 μM, relative to control", "value": "227% and 227 ± 8%"}, {"measurement": "Relative Imax", "setting": "GluN1–1b/2BC1/2DC2", "value": "115% and 115 ± 3%"}, {"measurement": "Relative Imax", "setting": "GluN1–1a/2BC1/2DC2; at 10 μM, relative to control", "value": "139% and 139 ± 3%"}]}]}
